Laboratory results reported in patent publication US6908931B2, “Tetrahydroisoquinoline derivatives as melatonin MT2 antagonists” (Bristol-Myers Squibb Company, priority 2003, dated 2005).

These compounds were tested against T1, human MT2 receptor (Homo sapiens, UniProt P49286) (assay: Melatonin receptor binding assay (MT2), 2-[125I]-iodomelatonin). Settings: membrane homogenates of NIH-3T3 cells expressing MT2; 2-[125I]-iodomelatonin 0.2 nM; 37° C., 1 hour; read-out: MT2 IC50.
T1 construct: melatonin MT1 and MT2 receptors cDNA were individually subcloned into pcDNA3 and introduced into NIH-3T3 cells using Lipofectamine; expressed in transfected cells
T1 sequence (P49286 1-362): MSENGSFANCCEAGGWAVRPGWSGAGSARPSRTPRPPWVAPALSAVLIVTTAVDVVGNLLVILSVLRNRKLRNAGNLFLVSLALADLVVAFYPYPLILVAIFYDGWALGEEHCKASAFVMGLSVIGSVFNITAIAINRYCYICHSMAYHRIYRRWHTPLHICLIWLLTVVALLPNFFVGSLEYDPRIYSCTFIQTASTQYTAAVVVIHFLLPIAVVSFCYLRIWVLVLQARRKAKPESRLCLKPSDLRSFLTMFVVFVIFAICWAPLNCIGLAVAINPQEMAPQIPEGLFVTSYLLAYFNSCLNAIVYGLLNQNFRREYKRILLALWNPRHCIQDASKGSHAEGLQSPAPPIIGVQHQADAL
Method: Melatonin receptor binding assay.
Membrane homogenates: melatonin MT1 and MT2 receptors cDNA were individually subcloned into pcDNA3 and introduced into NIH-3T3 cells using Lipofectamine. […] For preparing membrane homogenates, pellets are thawed on ice, and re-suspended in TME buffer in the presence of 10 μg/ml aprotinin and leupeptin, and 100 μM phenylmethylsulfonylfluoride. The cells were then homogenized using a dounce homogenizer, and centrifuged. The resulting pellet was re-suspended with dounce homogenizer in TME (supplemented with the above protease inhibitors) and frozen. On the day of assay, a small aliquot was thawed on ice and re-suspended in the ice cold TME (1:50-1:100 v/v) and held on ice until assayed. Incubation is at 37° C. for 1 hour. Reaction is terminated by filtration. Filters were washed 3 times.

Row | Structure (SMILES) | IC50
1 | CCCC(=O)N1CCc2cc(OC)c(OC)cc2C1CC(c1ccccc1)c1ccccc1 (centres unmarked) [Example 4, N-butyryl 1-(2,2-diphenyleth-1-yl)-6,7-dimethoxy-1,2,3,4-tetrahydroisoquinoline] | < 100 nM
2 | COc1cc2c(cc1Br)CCN(C(=O)COc1ccccc1)C2CC(c1ccccc1)c1ccccc1 (centres unmarked) [Example 31] | 100 to 1000 nM
3 | COc1cc2c(cc1OC)C(CC(c1ccccc1)c1ccccc1)N(C(=O)C1CCC1)CC2 (centres unmarked) [Example 43] | 100 to 1000 nM
4 | CCC(=O)N1CCc2cc(OC)c(OC)cc2C1CC(c1ccccc1)c1ccccc1 (centres unmarked) [Example 3, N-propionyl 1-(2,2-diphenyleth-1-yl)-6,7-dimethoxy-1,2,3,4-tetrahydroisoquinoline] | < 100 nM
5 | COc1ccc2c(c1)CCN(C(C)=O)C2CC(c1ccccc1)c1ccccc1 (centres unmarked) [Example 17] | 100 to 1000 nM
6 | COc1cc2c(cc1OC)C(CCc1ccccc1)N(C(=O)C1CCCCC1)CC2 (centres unmarked) [Example 58] | 100 to 1000 nM
7 | COc1cc2c(cc1OC)C(CC(c1ccccc1)c1ccccc1)N(C(N)=O)CC2 (centres unmarked) [Example 8, N-carbamoyl 1-(2,2-diphenyleth-1-yl)-6,7-dimethoxy-1,2,3,4-tetrahydroisoquinoline] | < 100 nM
8 | COc1cc2c(cc1OC)C(CC(c1ccccc1)c1ccccc1)N(C(=O)c1ccccc1OC)CC2 (centres unmarked) [Example 42] | 100 to 1000 nM
9 | CNC(=O)N1CCc2cc(OC)c(OC)cc2C1CC(c1ccccc1)c1ccccc1 (centres unmarked) [Example 9, N-methylcarbamoyl 1-(2,2-diphenyleth-1-yl)-6,7-dimethoxy-1,2,3,4-tetrahydroisoquinoline] | < 100 nM
10 | COc1ccc2c(c1)C(CC(c1ccccc1)c1ccccc1)N(C(C)=O)CC2 (centres unmarked) [Example 19] | < 100 nM
11 | CC(=O)N1CCc2cc(F)ccc2C1CC(c1ccccc1)c1ccccc1 (centres unmarked) [Example 28] | 100 to 1000 nM
12 | COc1cc2c(cc1OC)C(CCc1ccccc1)N(C(=O)CC(C)(C)C)CC2 (centres unmarked) [Example 63] | 100 to 1000 nM
13 | COC(=O)N1CCc2ccc(OC)cc2C1CCc1ccc(F)cc1 (centres unmarked) [Example 113] | < 100 nM
14 | COc1cc2c(cc1OC)C(CCc1ccccc1)N(C(=O)COc1ccccc1)CC2 (centres unmarked) [Example 56] | 100 to 1000 nM
15 | COc1ccc2c(c1OC)CCN(C(C)=O)C2CC(c1ccccc1)c1ccccc1 (centres unmarked) [Example 24] | 100 to 1000 nM
16 | COC(=O)N1CCc2cc(OC)c(OC)cc2C1CC(c1ccccc1)c1ccccc1 (centres unmarked) [Example 10, N-carbomethoxy 1-(2,2-diphenyleth-1-yl)-6,7-dimethoxy-1,2,3,4-tetrahydroisoquinoline] | < 100 nM
17 | COc1cc2c(cc1Br)CCN(C(=O)CC(C)(C)C)C2CC(c1ccccc1)c1ccccc1 (centres unmarked) [Example 36] | 100 to 1000 nM
18 | COc1cc2c(cc1OC)C(CCc1ccccc1)N(C(C)=O)CC2 (centres unmarked) [Example 14] | < 100 nM
19 | COc1cc2c(c(OC)c1)C(CC(c1ccccc1)c1ccccc1)N(C(C)=O)CC2 (centres unmarked) [Example 21] | < 100 nM
20 | CCCCCC(=O)N1CCc2cc(Br)c(OC)cc2C1CC(c1ccccc1)c1ccccc1 (centres unmarked) [Example 34] | 100 to 1000 nM
21 | COc1cc2c(cc1Br)CCN(C(=O)c1ccc(C)cc1)C2CC(c1ccccc1)c1ccccc1 (centres unmarked) [Example 39] | 100 to 1000 nM
22 | COc1cc2c(cc1Br)CCN(C(=O)c1cccc([N+](=O)[O-])c1)C2CC(c1ccccc1)c1ccccc1 (centres unmarked) [Example 37] | 100 to 1000 nM
23 | COc1cc2c(cc1Br)CCN(C(=O)C1CCCCC1)C2CC(c1ccccc1)c1ccccc1 (centres unmarked) [Example 33] | 100 to 1000 nM

More lines, now with the values ahead:

Row | IC50 | Structure (SMILES)
24 | 100 to 1000 nM | COc1ccc2c(c1)C(CCc1ccc(F)cc1)N(C(=O)C=Cc1ccccc1)CC2 (centres unmarked) [Example 122]
25 | 100 to 1000 nM | CC(C)COC(=O)N1CCc2cc3c(cc2C1CCc1ccc(F)cc1)OCC3 (centres unmarked) [Example 135]
26 | < 100 nM | O=C(c1ccno1)N1CCc2cc3c(cc2C1CCc1ccc(F)cc1)OCO3 (centres unmarked) [Example 103]
27 | 100 to 1000 nM | CC(C)(C)CC(=O)N1CCc2cc3c(cc2C1CCc1ccc(Cl)cc1)OCO3 (centres unmarked) [Example 149]
28 | 100 to 1000 nM | COc1cc2c(cc1OC)C(CCc1ccccc1)N(C(=O)c1ccc(C(F)(F)F)cc1)CC2 (centres unmarked) [Example 70]
29 | 100 to 1000 nM | CC(=O)OCC(=O)N1CCc2cc3c(cc2C1CCc1ccc(F)cc1)OCO3 (centres unmarked) [Example 104]
30 | < 100 nM | COCC(=O)N1CCc2ccc(OC)cc2C1CCc1ccc(F)cc1 (centres unmarked) [Example 110]
31 | < 100 nM | O=C(C1CCCC1)N1CCc2cc3c(cc2C1CCc1ccc(F)cc1)OCO3 (centres unmarked) [Example 102]
32 | 100 to 1000 nM | CC(C)COC(=O)N1CCc2cc3c(cc2C1CCc1ccc(Cl)cc1)OCO3 (centres unmarked) [Example 148]
33 | 100 to 1000 nM | COc1ccc2c(c1)C(CC(c1ccccc1)c1ccccc1)N(C(=O)c1ccc(C)cc1)CC2 (centres unmarked) [Example 82]
34 | 100 to 1000 nM | COc1ccc2c(c1)C(CCc1ccc(F)cc1)N(C(=O)OCC(C)C)CC2 (centres unmarked) [Example 120]
35 | < 100 nM | COCC(=O)N1CCc2cc3c(cc2C1CCc1ccc(Cl)cc1)OCO3 (centres unmarked) [Example 140]
36 | 100 to 1000 nM | COc1ccc2c(c1)C(CCc1ccc(F)cc1)N(C(=O)COC(C)=O)CC2 (centres unmarked) [Example 118]
37 | < 100 nM | O=C(C1CC1)N1CCc2cc3c(cc2C1CCc1ccc(F)cc1)OCO3 (centres unmarked) [Example 95]
38 | 100 to 1000 nM | O=C(C=Cc1ccccc1)N1CCc2cc3c(cc2C1CCc1ccc(Cl)cc1)OCO3 (centres unmarked) [Example 150]
39 | 100 to 1000 nM | COc1cc2c(cc1OC)C(CCc1ccccc1)N(C(=O)c1cccc(C)c1)CC2 (centres unmarked) [Example 67]
40 | 100 to 1000 nM | COc1cc2c(cc1OC)C(CCc1ccccc1)N(C(=O)c1ccc([N+](=O)[O-])cc1)CC2 (centres unmarked) [Example 66]

Row | IC50 | Structure (SMILES)
41 | 100 to 1000 nM | CC(C)(C)CC(=O)N1CCc2cc3c(cc2C1CCc1ccc(F)cc1)OCO3 (centres unmarked) [Example 107]
42 | 100 to 1000 nM | O=C(OCc1ccccc1)N1CCc2cc3c(cc2C1CCc1ccc(Cl)cc1)OCO3 (centres unmarked) [Example 143]
43 | 100 to 1000 nM | COc1ccc(C(=O)N2CCc3ccc(OC)cc3C2CC(c2ccccc2)c2ccccc2)cc1 (centres unmarked) [Example 79]
44 | 100 to 1000 nM | CC(=O)OCC(=O)N1CCc2cc3c(cc2C1CCc1ccc(Cl)cc1)OCO3 (centres unmarked) [Example 146]
45 | 100 to 1000 nM | O=C(c1ccno1)N1CCc2cc3c(cc2C1CCc1ccc(Cl)cc1)OCO3 (centres unmarked) [Example 145]
46 | 100 to 1000 nM | COc1ccc2c(c1)C(CC(c1ccccc1)c1ccccc1)N(C(=O)c1cccc([N+](=O)[O-])c1)CC2 (centres unmarked) [Example 80]
47 | < 100 nM | CCNC(=O)N1CCc2cc(OC)c(OC)cc2C1CCc1cccc(OC)c1 (centres unmarked) [Example 88]
48 | < 100 nM | CCC(=O)N1CCc2cc(OC)c(OC)cc2C1CCc1cccc(OC)c1 (centres unmarked) [Example 87]
49 | 100 to 1000 nM | CC(=O)N1CCc2cc3c(cc2C1CC(c1ccccc1)c1ccccc1)OCO3 (centres unmarked) [Example 91]
50 | 100 to 1000 nM | COc1ccc2c(c1)C(CC(c1ccccc1)c1ccccc1)N(C(=O)c1cc(C(F)(F)F)cc(C(F)(F)F)c1)CC2 (centres unmarked) [Example 83]
51 | < 100 nM | CCC(=O)N1CCc2cc3c(cc2C1CCc1ccc(Cl)cc1)OCO3 (centres unmarked) [Example 147]
52 | < 100 nM | COc1cc2c(cc1OC)C(CC(c1ccccc1)c1ccc(Cl)cc1)N(C(C)=O)CC2 (centres unmarked) [Example 84]
53 | 100 to 1000 nM | COc1ccc2c(c1)C(CCc1ccc(F)cc1)N(C(=O)OCc1ccccc1)CC2 (centres unmarked) [Example 114]
54 | < 100 nM | CCCC(=O)N1CCc2cc3c(cc2C1CCc1ccc(Cl)cc1)OCO3 (centres unmarked) [Example 144]
55 | < 100 nM | COc1ccc2c(c1)C(CCc1ccc(F)cc1)N(C(=O)c1ccno1)CC2 (centres unmarked) [Example 117]
56 | < 100 nM | O=C(CCl)N1CCc2cc3c(cc2C1CCc1ccc(F)cc1)OCO3 (centres unmarked) [Example 98]
